ChEMBL document CHEMBL1149041, “Polypropionates from the Mediterranean Mollusk Elysia timida” (J Nat Prod, 1994)

test system: Gambusia affinis; assay: Ichthyotoxicity against Gambusia affinis at 5 ppm; assay type: organism-based; conditions: in vivo; call rule not given here

| SMILES | Activity |
| --- | --- |
| CC/C=C(\C)[C@H]1C(C)=CC(C)=C[C@]1(C)c1oc(OC)c(C)c(=O)c1C | Active |
| C/C=C(\C)[C@H]1C(C)=C[C@@]2(C)[C@@H]1[C@]2(C)c1oc(OC)c(C)c(=O)c1C | Active |
| CC/C=C(\C)[C@H]1C(C)=C[C@@]2(C)[C@@H]1[C@]2(C)c1oc(OC)c(C)c(=O)c1C [PHOTODEOXYTRIDACHIONE] | Active |
